Measurements reported in patent US9150568B2, “Compositions and methods for modulating FXR” (NOVARTIS AG, priority 2010, dated 2015).
Where two headings read alike, the source gives them in different places.

Molecular target: T1, human Farnesoid X Receptor (FXR) ligand binding domain (GST-FXR LBD) (Homo sapiens, UniProt Q96RI1)
T1 construct: purchased Invitrogen
T1 sequence (Q96RI1 193-472 isoform Q96RI1-2): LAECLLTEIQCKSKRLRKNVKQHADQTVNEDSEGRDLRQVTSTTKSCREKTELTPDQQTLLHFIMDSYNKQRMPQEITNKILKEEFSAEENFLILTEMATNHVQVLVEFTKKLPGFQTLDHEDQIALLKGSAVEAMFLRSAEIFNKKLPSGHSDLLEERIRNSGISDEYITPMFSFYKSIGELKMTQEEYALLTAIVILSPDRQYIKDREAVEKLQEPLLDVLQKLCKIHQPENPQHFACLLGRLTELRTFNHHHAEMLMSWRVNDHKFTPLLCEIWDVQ
Assay: Human GST-FXR LBD co-activator interaction assay (HTRF)
Format: biochemical
Text: Human GST-FXR LBD Co-activator interaction Assay. The FXR HTRF assay is a biochemical assay measuring the interaction between FXR and a coactivator protein (SRC1). The ligand-induced interaction with a coactivator protein is a critical step in transcriptional activation by FXR. Thus, this is an assay designed to measure FXR agonist activity of compounds.
The ligand-dependent interaction between GST-FXR LBD and a peptide derived from Steroid Receptor Coactivator-1 (SRC-1) was monitored by Fluorescence Resonance Energy Transfer (FRET). […] Test compounds (in DMSO solution) and detection reagents (anti-GST-Cryptate labeled antibody and Streptavidin-XL665 conjugate; CisBio) were added in assay buffer containing 50 mM KF.
A negative control (without Streptavidin-XL665) was run with each assay and represented the background fluorescence. A reference FXR agonist, GW4064, was included in each experiment as positive control. The efficacy of each test compound was compared to that of GW4064. At each concentration, the relative activity of the test compound was expressed as Response %=(Rsample−RDMSO)/(Rpositive−RDMSO), where Rsample is the HTRF response (expressed in Delta F %) for the test compound, Rpositive is the maximal response for GW4064 at saturating concentrations, and RDMSO is the response for DMSO control. The EC50 values were calculated using GraphPad Prism (GraphPad Software) using non-linear regression curve fit (log(agonist) vs. response—variable slope (four parameters)).

[1] = GST-FXR LBD / biotin-SRC-1 peptide FRET, response relative to GW4064, read-out: FXR Co-activator interaction assay (EC50)

| Structure (SMILES) | EC50 [1] [nM] | EC50 [nM] |
| --- | --- | --- |
| COc1cc(C(=O)O)cc2sc(N3C4CC[C@H]3C[C@H](OCc3c(C5CCCCC5)noc3C3CC3)C4)nc12 [Example 9-2] | 11 |  |
| O=C(O)c1ccc2nc(N3C4CC[C@H]3C[C@H](OCc3c(C5CC5c5ccccc5)noc3C3CC3)C4)sc2c1 (some centres unmarked) [Example 10B, 2-(3-((5-cyclopropyl-3-(2-phenylcyclopropyl)isoxazol-4-yl)methoxy)-8-azabicyclo[3.2.1]octan-8-yl)benzo[d]thiazole-6-carboxylic acid] | 98 |  |
| CC1CC1c1noc(C2CC2)c1CO[C@@H]1CC2CC[C@@H](C1)N2c1nc2c(F)cc(C(=O)O)cc2s1 (some centres unmarked) [Example 12-1] | 25 |  |
| O=C(O)c1cc(F)c2nc(N3C4CC[C@H]3C[C@H](OCc3c(C5CC5)noc3C3CC3)C4)sc2c1 [Example 12-2] | 40 |  |
| COc1cc(C(=O)O)cc2sc(N3C4CC[C@H]3C[C@H](OCc3c(C5CC5)noc3C3CC3)C4)nc12 [Example 12-3] | 40 |  |
| O=C(O)c1ccc2nc(N3C4CC[C@H]3C[C@H](OCc3c(C5CCC6(CC5)CC6)noc3C3CC3)C4)sc2c1 [Example 13-1B] | 1.3 |  |
| O=C(O)c1cc(F)c2nc(N3C4CC[C@H]3C[C@H](OCc3c(C5CCC6(CC5)CC6)noc3C3CC3)C4)sc2c1 [Example 13-2B] | 0.53 |  |
| COc1cc(C(=O)O)cc2sc(N3C4CC[C@H]3C[C@H](OCc3c(C5CCC6(CC5)CC6)noc3C3CC3)C4)nc12 [Example 13-3B] | 0.67 |  |
| Cc1cc(C(=O)O)nc(N2C3CC[C@H]2C[C@H](OCc2c(C4CCC5(CC4)CC5)noc2C2CC2)C3)n1 [Example 14] | 35 |  |
| O=C(O)CNC(=O)c1ccc2nc(N3C4CC[C@H]3C[C@H](OCc3c(-c5ccccc5OC(F)(F)F)noc3C3CC3)C4)sc2c1 [Example 15-1B, 2-(2-(3-((5-cyclopropyl-3-(2-(trifluoromethoxy)phenyl)isoxazol-4-yl)methoxy)-8-azabicyclo[3.2.1]octan-8-yl)benzo[d]thiazole-6-carboxamido)acetic acid] | 0.6 |  |
| O=C(O)CNC(=O)c1cc(F)c2nc(N3C4CC[C@H]3C[C@H](OCc3c(-c5ccccc5OC(F)(F)F)noc3C3CC3)C4)sc2c1 [Example 15-2] | 0.5 |  |
| O=C(O)CNC(=O)c1ccc(N2C3CC[C@H]2C[C@H](OCc2c(-c4ccccc4OC(F)(F)F)noc2C2CC2)C3)nc1 [Example 15-3] | 17 |  |
| O=C(O)CNC(=O)c1cc(F)c2nc(N3C4CC[C@H]3C[C@H](OCc3c(-c5ccccc5C(F)(F)F)noc3C3CC3)C4)sc2c1 [Example 15-4] | 0.8 |  |
| O=C(NCCS(=O)(=O)O)c1ccc2nc(N3C4CC[C@H]3C[C@H](OCc3c(-c5ccccc5OC(F)(F)F)noc3C3CC3)C4)sc2c1 [Example 16-1, 2-(2-(3-((5-cyclopropyl-3-(2-(trifluoromethoxy)phenyl)isoxazol-4-yl)methoxy)-8-azabicyclo[3.2.1]octan-8-yl)benzo[d]thiazole-6-carboxamido)ethanesulfonic acid] | 0.6 |  |
| O=C(NCCS(=O)(=O)O)c1cc(F)c2nc(N3C4CC[C@H]3C[C@H](OCc3c(-c5ccccc5OC(F)(F)F)noc3C3CC3)C4)sc2c1 [Example 16-2] | 0.4 |  |
| O=C(NCCS(=O)(=O)O)c1cc(F)c2nc(N3C4CC[C@H]3C[C@H](OCc3c(-c5ccccc5C(F)(F)F)noc3C3CC3)C4)sc2c1 [Example 16-3] | 1.2 |  |
| O=C(NCCS(=O)(=O)O)c1ccc(N2C3CC[C@H]2C[C@H](OCc2c(-c4ccccc4OC(F)(F)F)noc2C2CC2)C3)nc1 [Example 16-4] | 9 |  |
| COC(=O)c1cnc(N2C3CC[C@H]2C[C@H](OCc2c(-c4ccccc4OC(F)(F)F)noc2C2CC2)C3)c(Br)c1 [Example 18-1, Methyl 5-bromo-6-((1S,3R)-3-((5-cyclopropyl-3-(2-(trifluoromethoxy)phenyl)isoxazol-4-yl)methoxy)-8-azabicyclo[3.2.1]octan-8-yl)nicotinate] | 9 |  |
| O=C(O)c1cnc(N2C3CC[C@H]2C[C@H](OCc2c(-c4ccccc4OC(F)(F)F)noc2C2CC2)C3)c(C2CC2)c1 [Example 18-2B, 5-cyclopropyl-6-((1S,3R)-3-((5-cyclopropyl-3-(2-(trifluoromethoxy)phenyl)isoxazol-4-yl)methoxy)-8-azabicyclo[3.2.1]octan-8-yl)nicotinic acid] | 7 |  |
| COC(=O)c1ccc(N2C3CC[C@H]2C[C@H](OCc2c(-c4ccccc4OC(F)(F)F)noc2C2CC2)C3)nc1 [Example 18-3A] | 8 |  |
| O=C(O)c1ccc(N2[C@@H]3CC[C@H]2C[C@H](OCc2c(-c4ccccc4OC(F)(F)F)noc2C2CC2)C3)nc1 [Example 18-3B, 6-[(1R,5S)-3-({5-cyclopropyl-3-[2-(trifluoromethoxy)phenyl]-1,2-oxazol-4-yl}methoxy)-8-azabicyclo[3.2.1]octan-8-yl]pyridine-3-carboxylic acid] | 4 |  |
| COC(=O)c1cnc(N2C3CC[C@H]2C[C@H](OCc2c(-c4ccccc4OC(F)(F)F)noc2C2CC2)C3)nc1 [Example 18-4A] | 20 |  |

| Structure (SMILES) | EC50 [1] [nM] | EC50 [nM] |
| --- | --- | --- |
| O=C(O)c1cnc(N2C3CC[C@H]2C[C@H](OCc2c(-c4ccccc4OC(F)(F)F)noc2C2CC2)C3)nc1 [Example 18-4B] | 10 |  |
| COC(=O)c1cnc(N2C3CC[C@H]2C[C@H](OCc2c(-c4ccccc4OC(F)(F)F)noc2C2CC2)C3)cn1 [Example 18-5A] | 20 |  |
| O=C(O)c1cnc(N2C3CC[C@H]2C[C@H](OCc2c(-c4ccccc4OC(F)(F)F)noc2C2CC2)C3)cn1 [Example 18-5B] | 3 |  |
| COC(=O)c1ccc(N2C3CC[C@H]2C[C@H](OCc2c(-c4ccccc4C(F)(F)F)noc2C2CC2)C3)nc1 [Example 18-6A] | 50 |  |
| O=C(O)c1ccc(N2[C@@H]3CC[C@H]2C[C@H](OCc2c(-c4ccccc4C(F)(F)F)noc2C2CC2)C3)nc1 [Example 18-6B, 6-[(1R,5S)-3-({5-cyclopropyl-3-[2-(trifluoromethyl)phenyl]-1,2-oxazol-4-yl}methoxy)-8-azabicyclo[3.2.1]octan-8-yl]pyridine-3-carboxylic acid] | 5 |  |
| COC(=O)c1cc(C)nc(N2C3CC[C@H]2C[C@H](OCc2c(-c4ccccc4OC(F)(F)F)noc2C2CC2)C3)n1 [Example 18-7A] | 18 |  |
| Cc1cc(C(=O)O)nc(N2C3CC[C@H]2C[C@H](OCc2c(-c4ccccc4OC(F)(F)F)noc2C2CC2)C3)n1 [Example 18-7B] | 2 |  |
| COC(=O)Cc1ccc(N2C3CC[C@H]2C[C@H](OCc2c(-c4ccccc4OC(F)(F)F)noc2C2CC2)C3)nc1 [Example 19-1A] | 180 |  |
| O=C(O)Cc1ccc(N2C3CC[C@H]2C[C@H](OCc2c(-c4ccccc4OC(F)(F)F)noc2C2CC2)C3)nc1 [Example 19-1B] | 40 |  |
| COC(=O)c1cnc(N2C3CC[C@H]2C[C@H](OCc2c(-c4ccccc4OC(F)(F)F)noc2C2CC2)C3)nc1C(F)(F)F [Example 19-2A] | 80 |  |
| O=C(O)c1cnc(N2C3CC[C@H]2C[C@H](OCc2c(-c4ccccc4OC(F)(F)F)noc2C2CC2)C3)nc1C(F)(F)F [Example 19-2B] | 20 |  |
| COC(=O)c1cnc(N2C3CC[C@H]2C[C@H](OCc2c(-c4ccccc4OC(F)(F)F)noc2C2CC2)C3)cc1C(F)(F)F [Example 19-3A] | 90 |  |
| O=C(O)c1cnc(N2C3CC[C@H]2C[C@H](OCc2c(-c4ccccc4OC(F)(F)F)noc2C2CC2)C3)cc1C(F)(F)F [Example 19-3B] | 10 |  |
| COC(=O)c1cnc(N2C3CC[C@H]2C[C@H](OCc2c(-c4ccccc4OC(F)(F)F)noc2C2CC2)C3)c(C)c1 [Example 19-4A] | 70 |  |
| Cc1cc(C(=O)O)cnc1N1C2CC[C@H]1C[C@H](OCc1c(-c3ccccc3OC(F)(F)F)noc1C1CC1)C2 [Example 19-4B] |  | 5 |
| COC(=O)c1cncc(N2C3CC[C@H]2C[C@H](OCc2c(-c4ccccc4OC(F)(F)F)noc2C2CC2)C3)n1 [Example 19-5A] | 200 |  |
| O=C(O)c1cncc(N2C3CC[C@H]2C[C@H](OCc2c(-c4ccccc4OC(F)(F)F)noc2C2CC2)C3)n1 [Example 19-5B] | 9 |  |
| COC(=O)c1ccnc(N2C3CC[C@H]2C[C@H](OCc2c(-c4ccccc4OC(F)(F)F)noc2C2CC2)C3)n1 [Example 19-6A] | 50 |  |
| O=C(O)c1ccnc(N2C3CC[C@H]2C[C@H](OCc2c(-c4ccccc4OC(F)(F)F)noc2C2CC2)C3)n1 [Example 19-6B] | 7 |  |
| COC(=O)c1cccc(N2C3CC[C@H]2C[C@H](OCc2c(-c4ccccc4OC(F)(F)F)noc2C2CC2)C3)n1 [Example 19-7A] | 10 |  |
| O=C(O)c1cccc(N2C3CC[C@H]2C[C@H](OCc2c(-c4ccccc4OC(F)(F)F)noc2C2CC2)C3)n1 [Example 19-7B] | 3 |  |
| COC(=O)c1ccnc(N2C3CC[C@H]2CC(OCc2c(-c4ccccc4C(F)(F)F)noc2C2CC2)C3)c1 (some centres unmarked) [Example 20A] | 170 |  |
